Source: BindingDB's records for doi:10.1016/s1074-5521(98)90117-x (Dupont Pharmaceuticals, 1998)

Target: HIV-1 protease (Human immunodeficiency virus, UniProt O90785)
Experiment: Protease Inhibtion Assay
Settings: pH 5.5
Source text: Protease inhibition fluorescence-based assay using cyclic ureas to inhibit HIV-protease.

HIV-1 protease, sequence (O90785 whole entry): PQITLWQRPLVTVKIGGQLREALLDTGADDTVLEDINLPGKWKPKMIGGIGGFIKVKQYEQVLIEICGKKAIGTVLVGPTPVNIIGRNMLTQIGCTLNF

Going from `Nc1cccc(CN2C(=O)N(Cc3cccc(N)c3)[C@H](Cc3ccccc3)[C@H](O)[C@@H](O)[C@H]2Cc2ccccc2)c1` to `Nc1n[nH]c2ccc(CN3C(=O)N(Cc4ccccc4)[C@H](Cc4ccccc4)[C@H](O)[C@@H](O)[C@H]3Cc3ccccc3)cc12` [DMP850], the Ki falls from 0.3 nM to 0.031 nM (9.7-fold). The second binds more tightly here.

Compared with `Nc1n[nH]c2ccc(CN3C(=O)N(Cc4ccc5ccccc5c4)[C@H](Cc4ccccc4)[C@H](O)[C@@H](O)[C@H]3Cc3ccccc3)cc12` [2-Naphthylmethyl cyclic urea], `Nc1n[nH]c2ccc(CN3C(=O)N(Cc4ccc5[nH]nc(N)c5c4)[C@H](Cc4ccccc4)[C@H](O)[C@@H](O)[C@H]3Cc3ccccc3)cc12` [3-Aminoindazole, 2] is 2.3-fold lower in Ki: 0.023 nM for the first, 0.01 nM for the second.

Going from `CCNc1[nH]nc2ccc(CN3C(=O)N(Cc4ccc5n[nH]c(NCC)c5c4)[C@H](Cc4ccccc4)[C@H](O)[C@@H](O)[C@H]3Cc3ccccc3)cc12` [3-alkylaminoindazole cyclic urea, (Et)] to `CCCNc1[nH]nc2ccc(CN3C(=O)N(Cc4ccc5n[nH]c(NCCC)c5c4)[C@H](Cc4ccccc4)[C@H](O)[C@@H](O)[C@H]3Cc3ccccc3)cc12` [3-alkylaminoindazole cyclic urea, (n-Pr)], the Ki rises from 0.041 nM to 0.23 nM (5.6-fold). The first binds more tightly here.

First: Nc1n[nH]c2ccc(CN3C(=O)N(Cc4ccc5[nH]nc(N)c5c4)[C@H](Cc4ccccc4)[C@H](O)[C@@H](O)[C@H]3Cc3ccccc3)cc12 [3-alkylaminoindazole cyclic urea, (H)]
Second: O=C1N(Cc2ccc3[nH]ncc3c2)[C@H](Cc2ccccc2)[C@H](O)[C@@H](O)[C@@H](Cc2ccccc2)N1Cc1ccc2[nH]ncc2c1 [(4R,5S,6S,7R)-4,7-dibenzyl-5,6-dihydroxy-1,3-bis(1H-indazol-5-ylmethyl)-1,3-diazepan-2-one]
The Ki of the first is lower: < 0.01 nM for the first, 0.018 nM for the second.

Going from `CNc1[nH]nc2ccc(CN3C(=O)N(Cc4ccc5n[nH]c(NC)c5c4)[C@H](Cc4ccccc4)[C@H](O)[C@@H](O)[C@H]3Cc3ccccc3)cc12` [3-alkylaminoindazole cyclic urea, (Me)] to `CC(C)Nc1[nH]nc2ccc(CN3C(=O)N(Cc4ccc5n[nH]c(NC(C)C)c5c4)[C@H](Cc4ccccc4)[C@H](O)[C@@H](O)[C@H]3Cc3ccccc3)cc12` [3-alkylaminoindazole cyclic urea, (i-Pr)], the Ki rises from 0.018 nM to 0.09 nM (5-fold). The first binds more tightly here.

Going from `CCCCN1C(=O)N(Cc2ccc3[nH]nc(N)c3c2)[C@H](Cc2ccccc2)[C@H](O)[C@@H](O)[C@H]1Cc1ccccc1` [(4R,5S,6S,7R)-1-(3-Amino-1H-indazol-5-ylmethyl)-4,7-dibenzyl-3-butyl-5,6-dihydroxy-[1,3]diazepan-2-one] to `CCCCCN1C(=O)N(Cc2ccc3[nH]nc(N)c3c2)[C@H](Cc2ccccc2)[C@H](O)[C@@H](O)[C@H]1Cc1ccccc1` [n-Pentyl cyclic urea], the Ki rises from 0.021 nM to 0.041 nM (2-fold). The first binds more tightly here.

Going from `O=C1N(Cc2ccc(CO)cc2)[C@H](Cc2ccccc2)[C@H](O)[C@@H](O)[C@@H](Cc2ccccc2)N1Cc1ccc(CO)cc1` [(4R,5S,6S,7R)-4,7-dibenzyl-5,6-dihydroxy-1,3-bis({[4-(hydroxymethyl)phenyl]methyl})-1,3-diazepan-2-one] to `Nc1n[nH]c2ccc(CN3C(=O)N(CC4CC4)[C@H](Cc4ccccc4)[C@H](O)[C@@H](O)[C@H]3Cc3ccccc3)cc12` [Cyclopropylmethyl cyclic urea], the Ki falls from 0.31 nM to 0.02 nM (16-fold). The second binds more tightly here.

Going from `Nc1n[nH]c2ccc(CN3C(=O)N(CC4CCC4)[C@H](Cc4ccccc4)[C@H](O)[C@@H](O)[C@H]3Cc3ccccc3)cc12` [Cyclobutylmethyl cyclic urea] to `CCCCCCN1C(=O)N(Cc2ccc3[nH]nc(N)c3c2)[C@H](Cc2ccccc2)[C@H](O)[C@@H](O)[C@H]1Cc1ccccc1` [n-Hexyl cyclic urea], the Ki rises from 0.016 nM to 0.13 nM (8.1-fold).
